Measurements as given in the NIST ThermoML archive (doi:10.1021/je800377b).
Numbers after ± are expanded uncertainties.

Conditions: Liquid

With `CCCC` [butane] the “vapor or sublimation pressure” value (273.15 K) was 103 ± 2 kPa, the “vapor or sublimation pressure” value (283.15 K) was 149 ± 3 kPa and the “vapor or sublimation pressure” value (293.15 K) was 208 ± 3 kPa. For the same compound, the “vapor or sublimation pressure” value (303.15 K) was 284 ± 4 kPa, the “vapor or sublimation pressure” value (313.15 K) was 378 ± 5 kPa and the “vapor or sublimation pressure” value (323.15 K) was 493 ± 6 kPa.

In the case of `CCC` [propane], the “vapor or sublimation pressure” value (273.15 K) is reported as 476 ± 6 kPa, the “vapor or sublimation pressure” value (283.15 K) is reported as 633 ± 8 kPa and the “vapor or sublimation pressure” value (293.15 K) is reported as 833 ± 10 kPa. For the same compound, the “vapor or sublimation pressure” value (303.15 K) was 1079 ± 13 kPa, the “vapor or sublimation pressure” value (313.15 K) was 1366 ± 17 kPa and the “vapor or sublimation pressure” value (323.15 K) was 1709 ± 21 kPa.
